Reference: US8399493B2, “Pyridinone derivatives and their use as positive allosteric modulators of mGluR2-receptors” (Janssen Pharmaceuticals, Inc., priority 2004, dated 2013)

SMILES	melting point
COc1ccc(-c2ccc(=O)n(Cc3ccc(C(F)(F)F)cc3F)c2)cc1 [4-34]	131 to 134 °C
COc1ccc(-c2ccc(=O)n(Cc3ccc(F)cc3)c2)cc1 [4-10]	103 °C
COCCOCc1ccc(-c2ccc(=O)n(Cc3ccc(Cl)cc3)c2)cc1 [2-28]	79 °C
CCOc1ccccc1-c1ccc(=O)n(Cc2ccc(Cl)cc2)c1 [2-20]	120 to 121 °C
CCc1ccc(Cn2cc(-c3ccc(OC)cc3)ccc2=O)cn1 [4-45, 1-((6-Ethylpyridin-3-yl)methyl)-5-(4-methoxyphenyl)pyridin-2(1H)-one]	130 °C
COC(=O)c1ccc(Cn2cc(-c3ccc(OC)cc3)ccc2=O)cc1 [4-27]	147 to 150 °C
N#Cc1ccc(-c2ccc(=O)n(Cc3ccccc3)c2)cc1 [1-25]	131 °C
CC(C)COCc1ccc(-c2ccc(=O)n(Cc3ccc(Cl)cc3)c2)cc1 [2-26]	91 °C
COc1ccc(-c2ccc(=O)n(Cc3ccccc3Cl)c2)cc1 [4-18]	125 °C
CC(C)(O)c1ccc(-c2ccc(=O)n(Cc3ccc(Cl)cc3)c2)cc1 [2-15, 1-(4-Chlorobenzyl)-5-(4-(2-hydroxypropan-2-yl)phenyl)pyridin-2(1H)-one]	157 °C
O=c1ccc(-c2ccc(Cl)c(Cl)c2)cn1Cc1ccccc1 [1-12]	134 °C
CNC(=O)Cc1ccc(-c2ccc(=O)n(Cc3ccc(Cl)cc3)c2)cc1 [2-44, 2-(4-(1-(4-Chlorobenzyl)-1,6-dihydro-6-oxopyridin-3-yl)phenyl)-N-methylacetamide]	183 °C
O=c1ccc(-c2cccc([N+](=O)[O-])c2)cn1Cc1ccccc1 [1-27]	149 °C
CC(C)Oc1ccc(-c2ccc(=O)n(Cc3ccc(Cl)cc3)c2)cc1 [2-21]	118 °C
COc1ccc(-c2ccc(=O)n(Cc3ccc([N+](=O)[O-])cc3)c2)cc1 [4-33]	95 °C
COc1ccc(-c2ccc(=O)n(Cc3ccc(C)c(F)c3)c2)cc1 [4-36]	98 to 100 °C
CS(=O)(=O)c1ccc(-c2ccc(=O)n(Cc3ccc(Cl)cc3)c2)cc1 [2-54]	199 to 200 °C
O=c1ccc(-c2ccc3ccccc3c2)cn1Cc1ccccc1 [1-32]	114 °C

SMILES	melting point
CC(=O)c1ccc(-c2ccc(=O)n(Cc3ccccc3)c2)cc1 [1-23]	118 °C
COc1ccc(-c2ccc(=O)n(Cc3ccc(Cl)cc3)c2)cc1N [2-37]	175 °C
O=c1ccc(-c2ccc3[nH]ccc3c2)cn1Cc1ccccc1 [1-30]	93 °C
COc1ccc(-c2ccc(=O)n(Cc3cccc(F)c3F)c2)cc1 [4-13]	71 °C
COC(=O)CCc1ccc(-c2ccc(=O)n(Cc3ccc(Cl)cc3)c2)cc1 [2-36]	105 °C
CC(C)COc1ccc(-c2ccc(=O)n(Cc3ccccc3)c2)cc1 [1-18]	110 °C
CC(C)Cc1ccc(-c2ccc(=O)n(Cc3ccc(Cl)cc3)c2)cc1 [2-04]	115 °C
O=c1ccc(-c2ccc(O)cc2)cn1Cc1ccccc1 [1-13]	202 °C
CSc1ccc(-c2ccc(=O)n(Cc3ccc(Cl)cc3)c2)cc1 [2-52]	132 °C
COc1ccc(-c2ccc(=O)n(Cc3ccc(C)cc3)c2)cc1 [4-06]	123 to 124 °C
COc1ccc(-c2ccc(=O)n(Cc3ccc(C#N)cc3)c2)cc1 [4-30]	119 to 120 °C
CN(C)c1ccc(-c2ccc(=O)n(Cc3ccc(Cl)cc3)c2)cc1 [2-48]	155 °C
CCOCc1ccc(-c2ccc(=O)n(Cc3ccc(Cl)cc3)c2)cc1 [2-25, 1-(4-Chlorobenzyl)-5-(4-(ethoxymethyl)phenyl)pyridin-2(1H)-one]	109 °C
COc1ccc(-c2ccc(=O)n(Cc3cc(C)on3)c2)cc1 [4-40]	100 to 102 °C
O=c1ccc(-c2cccc(Cl)c2)cn1Cc1ccccc1 [1-10]	120 °C
Cc1ccc(-c2ccc(=O)n(Cc3ccc(Cl)cc3)c2)cc1 [2-03]	126 to 128 °C
O=c1ccc(-c2ccc(OC(F)(F)F)cc2)cn1Cc1ccccc1 [1-20]	115 °C
O=c1ccc(-c2ccc(N3CCOCC3)nc2)cn1Cc1ccc(Cl)cc1 [2-65]	154 °C

Other lines, results leading:

melting point	SMILES
139 °C	CS(=O)(=O)NCCOc1ccc(-c2ccc(=O)n(Cc3ccc(Cl)cc3F)c2)cc1 [6-70]
139 °C	N#Cc1ccc(-c2ccc(=O)n(Cc3ccc(F)c(F)c3)c2)cc1 [6-13]
253 °C	NCCCOc1ccc(-c2ccc(=O)n(Cc3ccc(Cl)cc3F)c2)cc1 [6-43]
162 °C	CNC(=O)COc1ccc(-c2ccc(=O)n(Cc3ccc(Cl)cc3F)c2)cc1 [6-52]
224 °C	O=c1ccc(-c2ccc(O)cc2)cn1Cc1ccc(Cl)cc1F [6-21]
159 °C	CC(C)CCn1cc(-c2cccc(NS(C)(=O)=O)c2)ccc1=O [8-02, N-(3-(1-Isopentyl-6-oxo-1,6-dihydropyridin-3-yl)phenyl)methane-sulfonamide]
90 °C	Cc1nc(COc2ccc(-c3ccc(=O)n(Cc4ccc(Cl)cc4F)c3)cc2)cs1 [6-66]
110 °C	CS(=O)(=O)NCc1cccc(-c2ccc(=O)n(Cc3ccc(Cl)cc3F)c2)c1 [6-72]
240 °C	O=c1ccc(-c2cccc(-c3nn[nH]n3)c2)cn1Cc1ccc(Cl)cc1F [6-67]
194 °C	CC(=O)Nc1cccc(-c2ccc(=O)n(Cc3ccc(Cl)cc3F)c2)c1 [6-57]
121 °C	CC(=O)N(CCOc1ccc(-c2ccc(=O)n(Cc3ccc(Cl)cc3F)c2)cc1)C(C)=O [6-55]
134 °C	COc1ccc(Cn2cc(-c3ccc(C#N)cc3)ccc2=O)cc1 [6-77]
164 °C	O=c1ccc(-c2nc3ccccc3s2)cn1Cc1ccc(Cl)c(F)c1 [6-19, 1-(4-Chloro-3-fluorobenzyl)-5-(benzo[d]thiazol-2-yl)pyridin-2(1H)-one]
90 °C	COCCOc1ccc(-c2ccc(=O)n(Cc3ccc(Cl)cc3F)c2)cc1 [6-36]
153 °C	O=c1ccc(-c2ccc(OCCCN3CCOCC3)cc2)cn1Cc1ccc(Cl)cc1F [6-48]
96 °C	O=c1ccc(-c2cccs2)cn1Cc1ccc(F)c(F)c1 [6-15]
149 °C	O=c1ccc(-c2ccccc2)cn1Cc1nc2ccccc2s1 [6-81]
124 °C	COC(=O)Oc1ccc(-c2ccc(=O)n(Cc3ccc(Cl)cc3F)c2)cc1 [6-39, 4-(1-(4-Chloro-2-fluorobenzyl)-6-oxo-1,6-dihydropyridin-3-yl)phenyl methyl carbonate]
110 °C	O=c1ccc(-c2ccc3sccc3c2)cn1Cc1ccc(Cl)cc1F [6-69, 1-(4-Chloro-2-fluorobenzyl)-5-(benzo[b]thiophen-5-yl)pyridin-2(1H)-one]
226 °C	NCCOc1ccc(-c2ccc(=O)n(Cc3ccc(Cl)cc3F)c2)cc1 [6-42]
97 °C	COc1ccc(Cn2cc(-c3ccc(C(C)=O)cc3)ccc2=O)cc1 [6-76]
85 °C	COCc1ccc(-c2ccc(=O)n(Cc3ccc(F)c(F)c3)c2)cc1 [6-11]
86 °C	O=c1ccc(COc2ccccc2)cn1Cc1ccc(Cl)cc1F [16-04]
119 °C	COC(=O)COc1ccc(-c2ccc(=O)n(Cc3ccc(Cl)cc3F)c2)cc1 [6-41]
